The nature of data set [1]: Human microsome stability assay. Particulars: 1 µM test compound, 0.5 mg/mL liver microsomal protein, 37 °C. The data set is classed as in vitro ADME. Here is the method: The human microsomal stability assay is used for early assessment of metabolic stability of a test compound in human liver microsomes.
Human liver microsomes (Cat.NO.: 452117, Corning, USA;Cat.NO.:H2610, Xenotech, USA) were preincubated with test compound for 10 minutes at 37 °C in 100 mM potassium phosphate buffer, pH 7.4. The reactions were initiated by adding NADPH regenerating system. The final incubation mixtures contained 1 µM test compound, 0.5 mg/mL liver microsomal protein, 1 mM MgClz, 1 mM NADP, 1 unit/mL isocitric dehydrogenase and 6 mM isocitric acid in 100 mM potassium phosphate buffer, pH 7.4. After incubation times of 0, 3, 6, 9, 15 and 30 minutes at 37 °C, 300 µL of cold acetonitrile (including internal standard) was added to 100 µL incubation mixture to terminate the reaction. Following precipitation and centrifugation, the amount of compound remaining in the samples were determined by LC-MS/MS. Controls of no NADPH regenerating system at zero and 30 minutes were also prepared and analyzed. […] Table 6. Human liver microsome stability of the compounds of present invention
(In general: Microsomes from liver hold many membrane-bound enzymes, among them those of drug oxidation.)

The target of another data set is T1, hTLR9 (Homo sapiens, UniProt Q9NR96).
T1 sequence (Q9NR96 26-1032): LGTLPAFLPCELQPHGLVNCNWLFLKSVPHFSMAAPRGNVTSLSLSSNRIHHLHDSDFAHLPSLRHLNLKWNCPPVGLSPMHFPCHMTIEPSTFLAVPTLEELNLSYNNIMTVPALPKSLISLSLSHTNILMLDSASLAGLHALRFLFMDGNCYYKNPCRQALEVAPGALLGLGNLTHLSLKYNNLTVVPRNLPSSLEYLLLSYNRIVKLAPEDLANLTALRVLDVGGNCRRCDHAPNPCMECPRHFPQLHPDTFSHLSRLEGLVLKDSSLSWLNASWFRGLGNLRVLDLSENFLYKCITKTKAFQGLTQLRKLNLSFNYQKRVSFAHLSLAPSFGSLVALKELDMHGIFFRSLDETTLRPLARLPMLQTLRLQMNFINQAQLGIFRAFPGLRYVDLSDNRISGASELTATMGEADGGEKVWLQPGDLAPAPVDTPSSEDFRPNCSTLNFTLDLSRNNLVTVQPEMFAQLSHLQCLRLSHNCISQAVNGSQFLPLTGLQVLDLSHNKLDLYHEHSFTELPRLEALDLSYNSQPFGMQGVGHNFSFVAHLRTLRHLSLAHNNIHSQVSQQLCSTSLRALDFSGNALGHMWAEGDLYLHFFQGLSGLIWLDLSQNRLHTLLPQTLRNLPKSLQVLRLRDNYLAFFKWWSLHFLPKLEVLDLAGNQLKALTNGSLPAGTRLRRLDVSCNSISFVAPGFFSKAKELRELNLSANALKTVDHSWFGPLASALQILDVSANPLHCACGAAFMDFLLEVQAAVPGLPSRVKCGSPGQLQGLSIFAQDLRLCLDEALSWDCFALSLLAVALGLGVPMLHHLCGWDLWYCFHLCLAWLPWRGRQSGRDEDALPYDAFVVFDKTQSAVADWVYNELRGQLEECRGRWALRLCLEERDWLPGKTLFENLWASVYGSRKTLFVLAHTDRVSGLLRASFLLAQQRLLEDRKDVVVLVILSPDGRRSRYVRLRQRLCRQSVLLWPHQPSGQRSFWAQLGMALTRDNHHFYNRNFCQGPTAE
In words: HEK293-Blue-hTLR-9 cells assay (SEAP reporter, ODN2006 stimulation). The data set is classed as cell-based. More on the design: host or cells: HEK293 (HEK-Blue). The following applies: HEK293-Blue-hTLR9 cells, ODN2006, 20 hrs; read-out: HEK/hTLR9 IC50. Summed up:
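HEK293-Blue-hTLR9 cells (250,000-450,000 cells/mL) in DMEM with 10% FBS were treated with serially diluted compound (1% DMSO final) plus ODN2006 for 20 hrs at 37 °C. Supernatant SEAP activity was measured with QUANTI-Blue substrate for 2 hrs at 37 °C, reading absorbance at 620-655 nm.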

Regarding `C[C@@H]1CN(c2ccc(C#N)c3ncccc23)C[C@H](CN2CCN(c3ccc4c(n3)CN[C@H]4C)CC2)O1` (single isomer, unassigned) [Example 63], the “Clearance of Human microsome” value in data set [1] was 6.15 mL/min/kg. Moreover, the IC50 on hTLR9 turned out to be 67 nM.

In the case of `C[C@@H]1CN(c2ccc(C#N)c3ncccc23)C[C@H](CN2CCN(c3cnc4c(c3)CN[C@H]4C)CC2)O1` (single isomer, unassigned) [Example 67], in data set [1], the “Clearance of Human microsome” value was determined as 6.15 mL/min/kg. Also, on hTLR9, the IC50 was 143 nM.

On to `C[C@@H]1Cc2cc(N3CCN(C[C@H]4CN(c5ccc(C#N)c6ncccc56)C[C@@H](C)O4)CC3)ncc2CN1` (single isomer, unassigned) [Example 70], for which the “Clearance of Human microsome” value in data set [1] worked out at 7.55 mL/min/kg. For the same compound, the IC50 at hTLR9 is 83 nM.

Turning to `C[C@@H]1CN(c2ccc(C#N)c3ncccc23)C[C@H](CN2CCN(c3cc4c(cn3)CCN[C@@H]4C)CC2)O1` (single isomer, unassigned) [Example 74], in data set [1], the “Clearance of Human microsome” value turned out to be 7.39 mL/min/kg. Further, at hTLR9, the IC50 was 89 nM.

As for `C[C@@H]1CN(c2ccc(C#N)c3ncccc23)C[C@H](CN2CCN(c3cc4c(cn3)C[C@H](C)NC4)CC2)O1` (single isomer, unassigned) [Example 76], the “Clearance of Human microsome” value in data set [1] was determined as 6.15 mL/min/kg. Moreover, at hTLR9, the IC50 stood at 97 nM.

On to `C[C@@H]1Cc2cnc(N3CCN(C[C@H]4CN(c5ccc(C#N)c6ncccc56)C[C@@H](C)O4)CC3)cc2CN1` (single isomer, unassigned) [Example 77], for which the “Clearance of Human microsome” value in data set [1] amounted to 6.34 mL/min/kg. The IC50 on hTLR9 stood at 115 nM.

In the case of `C[C@@H]1CN(c2ccc(C#N)c3nccnc23)C[C@H](CN2CCN(c3ccc4c(n3)CN[C@H]4C)CC2)O1` (single isomer, unassigned) [Example 78], the “Clearance of Human microsome” value in data set [1] worked out at 7.50 mL/min/kg. Moreover, on hTLR9, the IC50 was determined as 131 nM.

For `C[C@@H]1CN(c2ccc(C#N)c3nccnc23)C[C@H](CN2CCN(c3cc4c(cn3)C[C@H](C)NC4)CC2)O1` (single isomer, unassigned) [Example 81], the “Clearance of Human microsome” value in data set [1] is 6.15 mL/min/kg. For the same compound, on hTLR9, the IC50 turned out to be 96 nM.

On to `C[C@@H]1Cc2cnc(N3CCN(C[C@H]4CN(c5ccc(C#N)c6nccnc56)C[C@@H](C)O4)CC3)cc2CN1` (single isomer, unassigned) [Example 82], for which the “Clearance of Human microsome” value in data set [1] came out at 8.84 mL/min/kg. Also, on hTLR9, the IC50 came out at 192 nM.

In the case of `C[C@@H]1Cc2cc(N3CCN(C[C@H]4CN(c5ccc(C#N)c6nccnc56)C[C@@H](C)O4)CC3)ncc2CN1` (single isomer, unassigned) [Example 83], the “Clearance of Human microsome” value in data set [1] was found to be 8.31 mL/min/kg. Moreover, the IC50 on hTLR9 was determined as 124 nM.

`C[C@@H]1CN(c2ccc(C#N)c3nccnc23)C[C@H](CN2CCN(c3cc4c(cn3)[C@H](C)NCC4)CC2)O1` (single isomer, unassigned) [Example 85]: the “Clearance of Human microsome” value in data set [1] stood at 7.83 mL/min/kg. Besides, on hTLR9, the IC50 was determined as 87 nM.

With `C[C@@H]1CN(c2ccc(C#N)c3ncccc23)C[C@H](CN2CCN(c3ccc4c(c3)CNC4)CC2)O1` [Example 7, 5-[(2S,6R)-2-[(4-isoindolin-5-ylpiperazin-1-yl)methyl]-6-methyl-morpholin-4-yl] quinoline-8-carbonitrile], the “Clearance of Human microsome” value in data set [1] is on record as 8.75 mL/min/kg. On hTLR9, the IC50 was found to be 89 nM.

With `C[C@@H]1CN(c2ccc(C#N)c3ncccc23)C[C@H](CN2CCN(c3ccc4c(c3)CNC4)C(CO)C2)O1` (stereo partly drawn) [Example 13, 5-[(2S,6R)-2-[[3-(hydroxymethyl)-4-isoindolin-5-yl-piperazin-1-yl]methyl]-6-methyl-morpholin-4-yl]quinoline-8-carbonitrile], the “Clearance of Human microsome” value in data set [1] is given as 8.00 mL/min/kg. On hTLR9, the IC50 came to 109 nM.

With `C[C@@H]1CN(c2ccc(C#N)c3ncccc23)C[C@H](CN2CCN(c3cc4c(cn3)CCNC4)CC2)O1` [Example 20, 5-[(2R,6S)-2-methyl-6-[[4-(5,6,7,8-tetrahydro-2,6-naphthyridin-3-yl)piperazin-1-yl]methyl]morpholin-4-yl]quinoline-8-carbonitrile], the “Clearance of Human microsome” value in data set [1] is 6.43 mL/min/kg. Further, the IC50 on hTLR9 came to 72 nM.

For `C[C@@H]1CN(c2ccc(C#N)c3ncccc23)C[C@H](CN2CCN(c3ccc4c(c3)C(O)CNC4)CC2)O1` (stereo partly drawn) [Example 22, 5-[(2S,6R)-2-[[4-(4-hydroxy-1,2,3,4-tetrahydroisoquinolin-6-yl)piperazin-1-yl]methyl]-6-methyl-morpholin-4-yl]quinoline-8-carbonitrile], the “Clearance of Human microsome” value in data set [1] is 6.82 mL/min/kg. In addition, the IC50 on hTLR9 was 45 nM.

For the compound `C[C@@H]1CN(c2ccc(C#N)c3ncccc23)C[C@H](CN2CCN(c3cnc4c(c3)CCNC4)CC2)O1` [Example 23, 5-[(2R,6S)-2-methyl-6-[[4-(5,6,7,8-tetrahydro-1,7-naphthyridin-3-yl)piperazin-1-yl]methyl]morpholin-4-yl]quinoline-8-carbonitrile], the “Clearance of Human microsome” value in data set [1] was determined as 6.15 mL/min/kg. For the same compound, the IC50 at hTLR9 was determined as 59 nM.

`C[C@@H]1CN(c2ccc(C#N)c3ncccc23)C[C@H](CN2CCN(c3ccc4c(c3)CCNC4CO)CC2)O1` (stereo partly drawn) [Example 24, 5-[(2S,6R)-2-[[4-[1-(hydroxymethyl)-1,2,3,4-tetrahydroisoquinolin-6-yl]piperazin-1-yl]methyl]-6-methyl-morpholin-4-yl]quinoline-8-carbonitrile]: the “Clearance of Human microsome” value in data set [1] is 6.15 mL/min/kg. Moreover, the IC50 at hTLR9 worked out at 46 nM.

`C[C@@H]1CN(c2ccc(C#N)c3ncccc23)C[C@H](CN2CCN(c3ccc4c(c3)C(O)CN(C)C4)CC2)O1` (stereo partly drawn) [Example 59, 5-[(2S,6R)-2-[[4-(4-hydroxy-2-methyl-3,4-dihydro-1H-isoquinolin-6-yl)piperazin-1-yl]methyl]-6-methyl-morpholin-4-yl]quinoline-8-carbonitrile]: the IC50 at hTLR9 is 133 nM.

In the case of `Cc1nc2c(nc1N1CCN(C[C@H]3CN(c4ccc(C#N)c5ncccc45)C[C@@H](C)O3)CC1)CCNC2` [Example 60, 5-[(2R,6S)-2-methyl-6-[[4-(3-methyl-5,6,7,8-tetrahydropyrido[3,4-b]pyrazin-2-yl)piperazin-1-yl]methyl]morpholin-4-yl]quinoline-8-carbonitrile], at hTLR9, the IC50 is 156 nM.

As to `C[C@@H]1CN(c2ccc(C#N)c3ncccc23)C[C@H](CN2CCN(c3ncnc4c3CNCC4)CC2)O1` [Example 61, 5-[(2R,6S)-2-methyl-6-[[4-(5,6,7,8-tetrahydropyrido[4,3-d]pyrimidin-4-yl)piperazin-1-yl]methyl]morpholin-4-yl]quinoline-8-carbonitrile], the IC50 on hTLR9 stood at 229 nM.

For `C[C@@H]1CN(c2ccc(C#N)c3ncccc23)C[C@H](CN2CCN(c3nccc4c3CCNC4)CC2)O1` [Example 62, 5-[(2R,6S)-2-methyl-6-[[4-(5,6,7,8-tetrahydro-2,6-naphthyridin-1-yl)piperazin-1-yl]methyl]morpholin-4-yl]quinoline-8-carbonitrile], at hTLR9, the IC50 stood at 151 nM.

As to `COc1ccc(N2CCN(C[C@H]3CN(c4ccc(C#N)c5ncccc45)C[C@@H](C)O3)CC2)cc1` [Example R1, 5-[(2S,6R)-2-[[4-(4-methoxyphenyl)piperazin-1-yl]methyl]-6-methyl-morpholin-4-yl]quinoline-8-carbonitrile, reference compound], the IC50 at hTLR9 amounted to 6620 nM.

Source of the values: patent EP3807270B1, “NOVEL HETEROARYL HETEROCYCLYL COMPOUNDS FOR THE TREATMENT OF AUTOIMMUNE DISEASE” (F. Hoffmann-La Roche AG, priority 2018, dated 2019).
